According to patent publication US20260347338A1, “PYRIMIDINE/PYRIDINE DERIVATIVES OR SALTS THEREOF AND PHARMACEUTICAL COMPOSITIONS COMPRISING THE SAME” (YUHAN CORPORATION, priority 2023, published 2026):
pIC50: −log10 of the molar value. Where a name gives a salt, the structure may show the parent alone.

Biological target: T1, human recombinant HPK1 (Homo sapiens, UniProt Q92918)
T1 construct: purchased BPS Bioscience
Assay: Inhibitory activity against human recombinant HPK1 (TR-FRET)
Assay type: biochemical
Conditions: ULight-p70S6K peptide, ATP at Km, room temperature, 1 hour, 0.32 to 1000 nM compound
Procedure, shortened: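 Recombinant human HPK1 with ULight-p70S6K peptide and ATP at Km, 1 h at room temperature in HEPES pH 7.4 buffer with Mg2+, Mn2+, EGTA, DTT; compounds 0.32–1000 nM final. EDTA stop, Eu-anti-phosphopeptide TR-FRET read (665 nm); IC50 from % inhibition versus DMSO, binned A–D at 10, 50, 100 nM.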

T1 sequence (Q92918 whole entry): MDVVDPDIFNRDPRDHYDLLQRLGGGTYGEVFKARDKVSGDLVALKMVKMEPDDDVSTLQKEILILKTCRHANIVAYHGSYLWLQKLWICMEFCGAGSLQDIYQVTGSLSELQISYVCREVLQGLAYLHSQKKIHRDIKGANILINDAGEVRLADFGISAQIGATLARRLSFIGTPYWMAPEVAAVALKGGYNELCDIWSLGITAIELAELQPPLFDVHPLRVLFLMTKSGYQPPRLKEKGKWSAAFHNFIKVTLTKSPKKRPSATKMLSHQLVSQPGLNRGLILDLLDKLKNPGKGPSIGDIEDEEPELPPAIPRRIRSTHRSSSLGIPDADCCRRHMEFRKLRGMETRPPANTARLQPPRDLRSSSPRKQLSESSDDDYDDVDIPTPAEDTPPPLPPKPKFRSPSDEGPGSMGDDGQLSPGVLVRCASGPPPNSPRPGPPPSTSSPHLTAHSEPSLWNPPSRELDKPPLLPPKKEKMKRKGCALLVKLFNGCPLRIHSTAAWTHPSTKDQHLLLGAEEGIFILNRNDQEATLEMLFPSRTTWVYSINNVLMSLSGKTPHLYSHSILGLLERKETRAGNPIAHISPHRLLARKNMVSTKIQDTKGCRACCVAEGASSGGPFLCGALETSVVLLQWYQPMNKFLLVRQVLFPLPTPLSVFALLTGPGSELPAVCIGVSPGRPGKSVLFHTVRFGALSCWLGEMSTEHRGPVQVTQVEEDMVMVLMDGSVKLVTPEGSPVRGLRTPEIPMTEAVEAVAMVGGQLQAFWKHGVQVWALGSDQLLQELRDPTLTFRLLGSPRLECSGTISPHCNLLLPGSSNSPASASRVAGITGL

Row | Structure (SMILES) | pIC50
1 | O=C(c1cnc(Nc2ccnc(-c3cccc(O)c3)n2)cc1N1CCC[C@H](O)C1)C1CC1 [Example 4, (S)-cyclopropyl(6-((2-(3-hydroxyphenyl)pyrimidin-4-yl)amino)-4-(3-hydroxypiperidin-1-yl)pyridin-3-yl)methanone] | 7.00 to 7.30
2 | N[C@H]1CCCN(c2cc(Nc3ccnc(-c4cc5nccnc5cc4F)n3)ncc2-c2cnn(CC(F)(F)F)c2)C1 [Example 89, (S)-N-(4-(3-aminopiperidin-1-yl)-5-(1-(2,2,2-trifluoroethyl)-1H-pyrazol-4-yl)pyridin-2-yl)-2-(7-fluoroquinoxalin-6-yl)pyrimidin-4-amine hydrochloride] | ≥ 8.00
3 | COc1cccc(F)c1-c1nc(Nc2cc(N3CCC[C@H](O)C3)c(-c3cnn(C(F)(F)F)c3)cn2)ccc1N [Example 178, (3S)-1-(2-((5-amino-6-(2-fluoro-6-methoxyphenyl)pyridin-2-yl)amino)-5-(1-(trifluoromethyl)-1H-pyrazol-4-yl)pyridin-4-yl)piperidin-3-ol] | ≥ 8.00
4 | COc1cccc(F)c1-c1nccc(Nc2cc(N3CCC(C4(O)CC4)CC3)c(-c3cnn(C4CCOCC4)c3)cn2)n1 [Example 65, 1-(1-(2-((2-(2-fluoro-6-methoxyphenyl)pyrimidin-4-yl)amino)-5-(1-(tetrahydro-2H-pyran-4-yl)-1H-pyrazol-4-yl)pyridin-4-yl)piperidin-4-yl)cyclopropan-1-ol] | ≥ 8.00
5 | COc1cccc(F)c1-c1nccc(Nc2cc(N3CC[C@H](N)C3)c(-c3cnn(C4CCOCC4)c3)cn2)n1 [Example 97, (S)-N-(4-(3-aminopyrrolidin-1-yl)-5-(1-(tetrahydro-2H-pyran-4-yl)-1H-pyrazol-4-yl)pyridin-2-yl)-2-(2-fluoro-6-methoxyphenyl)pyrimidin-4-amine hydrochloride] | ≥ 8.00
6 | COc1cccc(F)c1-c1nccc(Nc2cc(N3CCC[C@H](N)C3)c(C#Cc3cnn(CC(F)(F)F)c3)cn2)n1 [Example 166, (S)-N-(4-(3-aminopiperidin-1-yl)-5-((1-(2,2,2-trifluoroethyl)-1H-pyrazol-4-yl)ethynyl)pyridin-2-yl)-2-(2-fluoro-6-methoxyphenyl)pyrimidin-4-amine hydrochloride] | ≥ 8.00
7 | COc1cccc(F)c1-c1nccc(Nc2cc(N3CCC[C@H](N)C3)c(-c3ccc4c(c3)CCC(=O)N4C)cn2)n1 [Example 263, (S)-6-(4-(3-aminopiperidin-1-yl)-6-((2-(2-fluoro-6-methoxyphenyl)pyrimidin-4-yl)amino)pyridin-3-yl)-1-methyl-3,4-dihydroquinolin-2(1H)-one hydrochloride] | ≥ 8.00
8 | COc1cccc(F)c1-c1nc(Nc2cc(N3CC[C@@H](F)[C@H](N)C3)c(-c3cnn(C(F)F)c3)cn2)ccc1C#N [Example 321, 6-((4-((3R,4R)-3-amino-4-fluoropiperidin-1-yl)-5-(1-(difluoromethyl)-1H-pyrazol-4-yl)pyridin-2-yl)amino)-2-(2-fluoro-6-methoxyphenyl)nicotinonitrile hydrochloride] | ≥ 8.00
9 | COc1cccc(F)c1-c1nccc(Nc2cc(N3C[C@@H](N)C[C@H](F)C3)c(-c3cnn(CC(F)(F)F)c3)cn2)n1 [Example 332, N-(4-((3S,5S)-3-amino-5-fluoropiperidin-1-yl)-5-(1-(2,2,2-trifluoroethyl)-1H-pyrazol-4-yl)pyridin-2-yl)-2-(2-fluoro-6-methoxyphenyl)pyrimidin-4-amine hydrochloride] | ≥ 8.00
10 | Cc1cncc(-c2nccc(Nc3cc(N4CCC[C@H](O)C4)c(C(=O)C4CC4)cn3)n2)c1 [Example 1, (S)-cyclopropyl(4-(3-hydroxypiperidin-1-yl)-6-((2-(5-methylpyridin-3-yl)pyrimidin-4-yl)amino)pyridin-3-yl)methanone] | 7.30 to 8.00
11 | COc1cccc(F)c1-c1nc(Nc2cc(N3CCC[C@H](N)C3)c(-c3cnn(C4CCOCC4)c3)cn2)ccc1[N+](=O)[O-] [Example 70, 4-((S)-3-aminopiperidin-1-yl)-N-(6-(2-fluoro-6-methoxyphenyl)-5-nitropyridin-2-yl)-5-(1-(tetrahydro-2H-pyran-4-yl)-1H-pyrazol-4-yl)pyridin-2-amine hydrochloride] | ≥ 8.00
12 | CNC[C@@H]1CCCN(c2cc(Nc3ccnc(-c4c(F)cccc4OC)n3)ncc2-c2cnn(C(F)F)c2)C1 [Example 266, (S)-N-(5-(1-(difluoromethyl)-1H-pyrazol-4-yl)-4-(3-((methylamino)methyl)piperidin-1-yl)pyridin-2-yl)-2-(2-fluoro-6-methoxyphenyl)pyrimidin-4-amine hydrochloride] | ≥ 8.00
13 | COc1cccc(F)c1-c1nc(Nc2cc(N3CCC[C@H](N)C3)c(-c3ccc(N4CCOCC4)nc3)cn2)ccc1C#N [Example 323, 6-((4-((S)-3-aminopiperidin-1-yl)-6′-morpholino-[3,3′-bipyridin]-6-yl)amino)-2-(2-fluoro-6-methoxyphenyl)nicotinonitrile hydrochloride] | ≥ 8.00
14 | COc1cccc(F)c1-c1nccc(Nc2cc(N3CCC[C@H](O)C3)c(C(=O)C3CC3)cn2)n1 [Example 5, (S)-cyclopropyl(6-((2-(2-fluoro-6-methoxyphenyl)pyrimidin-4-yl)amino)-4-(3-hydroxypiperidin-1-yl)pyridin-3-yl)methanone] | 7.30 to 8.00
15 | COc1cc(F)cc(F)c1-c1nc(Nc2cc(N3CCC[C@H](O)C3)c(-c3cnn(C4CCOCC4)c3)cn2)ccc1N [Example 227, (3S)-1-(2-((5-amino-6-(2,4-difluoro-6-methoxyphenyl)pyridin-2-yl)amino)-5-(1-(tetrahydro-2H-pyran-4-yl)-1H-pyrazol-4-yl)pyridin-4-yl)piperidin-3-ol] | ≥ 8.00
16 | CNCc1cc(F)c(-c2nccc(Nc3cc(N4CCC[C@H](O)C4)c(-c4cnn(C5CCOCC5)c4)cn3)n2)c(OC)c1 [Example 190, (S)-1-(2-((2-(2-fluoro-6-methoxy-4-((methylamino)methyl)phenyl)pyrimidin-4-yl)amino)-5-(1-(tetrahydro-2H-pyran-4-yl)-1H-pyrazol-4-yl)pyridin-4-yl)piperidin-3-ol] | ≥ 8.00
17 | N[C@H]1CCCN(c2cc(Nc3cccc(N4CCOC4=O)n3)ncc2-c2cnn(C3CCOCC3)c2)C1 [Example 127, (S)-3-(6-((4-(3-aminopiperidin-1-yl)-5-(1-(tetrahydro-2H-pyran-4-yl)-1H-pyrazol-4-yl)pyridin-2-yl)amino)pyridin-2-yl)oxazolidin-2-one hydrochloride] | 7.30 to 8.00
18 | COc1cccc(F)c1-c1nc(Nc2cc(N3CCC[C@H](N)C3)c(-c3cnn(C4CCOCC4)c3)cn2)ccc1C(N)=O [Example 129, 6-((4-((S)-3-aminopiperidin-1-yl)-5-(1-(tetrahydro-2H-pyran-4-yl)-1H-pyrazol-4-yl)pyridin-2-yl)amino)-2-(2-fluoro-6-methoxyphenyl)nicotinamide hydrochloride] | ≥ 8.00
19 | COc1cccc(F)c1-c1nccc(Nc2cc(N3CCC(F)(CN(C)C)CC3)c(-c3cnn(C4CCOCC4)c3)cn2)n1 [Example 46, N-(4-(4-((dimethylamino)methyl)-4-fluoropiperidin-1-yl)-5-(1-(tetrahydro-2H-pyran-4-yl)-1H-pyrazol-4-yl)pyridin-2-yl)-2-(2-fluoro-6-methoxyphenyl)pyrimidin-4-amine] | ≥ 8.00
20 | COc1cccc(F)c1-c1nccc(Nc2cc(N3CCC[C@H](N)C3)c(-c3ccc(N(C)C)nc3)cn2)n1 [Example 118, (S)-4-(3-aminopiperidin-1-yl)-N^6-(2-(2-fluoro-6-methoxyphenyl)pyrimidin-4-yl)-N^6′,N^6′-dimethyl-[3,3′-bipyridin]-6,6′-diamine hydrochloride] | ≥ 8.00
21 | COC(=O)c1cc(F)c(-c2nccc(Nc3cc(N4CCC[C@H](N)C4)c(-c4cnn(C(F)F)c4)cn3)n2)c(OC)c1 [Example 185, methyl (S)-4-(4-((4-(3-aminopiperidin-1-yl)-5-(1-(difluoromethyl)-1H-pyrazol-4-yl)pyridin-2-yl)amino)pyrimidin-2-yl)-3-fluoro-5-methoxybenzoate hydrochloride] | ≥ 8.00
22 | COc1cc(F)cc(F)c1-c1nccc(Nc2cc(N3CCC[C@H](O)C3)c(C#Cc3cnn(C(F)(F)F)c3)cn2)n1 [Example 218, (S)-1-(2-((2-(2,4-difluoro-6-methoxyphenyl)pyrimidin-4-yl)amino)-5-((1-(trifluoromethyl)-1H-pyrazol-4-yl)ethynyl)pyridin-4-yl)piperidin-3-ol] | ≥ 8.00
23 | COc1cccc(F)c1-c1nc(Nc2cc(N3CC[C@@H](C)[C@H](N)C3)c(-c3cnn(C(F)F)c3)cn2)ccc1C#N [Example 337, 6-((4-((3S,4R)-3-amino-4-methylpiperidin-1-yl)-5-(1-(difluoromethyl)-1H-pyrazol-4-yl)pyridin-2-yl)amino)-2-(2-fluoro-6-methoxyphenyl)-nicotinonitrile hydrochloride] | ≥ 8.00
24 | COc1cccc(F)c1-c1nccc(Nc2cc(N3CCC[C@H](N)C3)c(-c3cnn(C4CCN(C)CC4)c3)cn2)n1 [Example 74, (S)-N-(4-(3-aminopiperidin-1-yl)-5-(1-(1-methylpiperidin-4-yl)-1H-pyrazol-4-yl)pyridin-2-yl)-2-(2-fluoro-6-methoxyphenyl)pyrimidin-4-amine hydrochloride] | ≥ 8.00
25 | COc1cccc(F)c1-c1nccc(Nc2cc(N3CCC[C@H](N)C3)c(-c3ccc(N4CCNCC4)nc3)cn2)n1 [Example 241, (S)-4-(3-aminopiperidin-1-yl)-N-(2-(2-fluoro-6-methoxyphenyl)pyrimidin-4-yl)-6′-(piperazin-1-yl)-[3,3′-bipyridin]-6-amine hydrochloride] | ≥ 8.00
26 | COc1cccc(F)c1-c1nccc(Nc2cc(N3CCC[C@H](N)C3)c(C#Cc3cnn(C(F)(F)F)c3)cn2)n1 [Example 111, (S)-N-(4-(3-aminopiperidin-1-yl)-5-((1-(trifluoromethyl)-1H-pyrazol-4-yl)ethynyl)pyridin-2-yl)-2-(2-fluoro-6-methoxyphenyl)pyrimidin-4-amine hydrochloride] | ≥ 8.00
